Assay results: patent US20220242870A1, “HETEROCYCLE-FUSED PYRIMIDINE DERIVATIVE AND USE THEREOF” (VORONOI Inc., priority 2019, published 2022)

Columns and labels:
human GST-HPK1 (1-346) = biological target: T1, human GST-HPK1 (1-346) (Homo sapiens, UniProt Q92918); assay: HPK1 enzyme inhibitory ability (ADP-Glo kinase assay); assay type: biochemical; conditions: human GST-HPK1 3 ng, ATP 3 uM, 25° C. 2 hours
T1 construct: purified human GST-HPK1 (1-346, Signalchem) enzyme; purchased Signalchem
T1 sequence (Q92918 1-346): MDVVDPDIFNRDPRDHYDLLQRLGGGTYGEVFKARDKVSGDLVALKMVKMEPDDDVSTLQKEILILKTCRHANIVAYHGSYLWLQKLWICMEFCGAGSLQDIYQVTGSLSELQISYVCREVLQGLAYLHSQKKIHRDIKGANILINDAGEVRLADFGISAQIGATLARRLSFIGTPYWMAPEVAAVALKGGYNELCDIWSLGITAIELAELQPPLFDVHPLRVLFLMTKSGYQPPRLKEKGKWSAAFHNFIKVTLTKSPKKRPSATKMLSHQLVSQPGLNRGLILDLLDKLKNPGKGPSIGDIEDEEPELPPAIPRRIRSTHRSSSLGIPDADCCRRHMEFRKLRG
Summary of the method: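 Human GST-HPK1(1-346), 3 ng, reacted with 3 uM ATP and specific substrate in 40 mM Tris-HCl pH 7.4, 20 mM MgCl2, 0.5 mg/mL BSA, 50 uM DTT for 2 h at 25° C. ADP-Glo luminescence read; IC50 (nM) relative to untreated solvent control.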

ULK1 = biological target: T2, ULK1 (Homo sapiens, UniProt O75385); assay: scanMAX kinase assay panel; assay type: binding; conditions: read-out: control percentage (% control)
T2 construct: purchased DiscoverX
Procedure: (§1) The activities of the compounds according to the present invention to more diverse enzymes were evaluated. Specifically, it was decided that the enzyme selectivity of Example 74 selected from the compounds of Examples 1 to 129 was measured at the request of DiscoverX, and the experiment was conducted using a scanMAX™ kinase assay panel. At this time, as a drug to treat the enzyme, a solution prepared by dissolving in DMSO at a concentration of 1 μM was used, and the control percentage (% control) was determined by the method of Equation 1 below, and the results were shown in Table 2 below.
(§2) In Equation above, the positive control and negative control mean compounds showing control percentages of 0% and 100% as DMSO, respectively.

FGR = biological target: T3, FGR (Homo sapiens, UniProt P09769); assay: scanMAX kinase assay panel; assay type: binding; conditions: read-out: control percentage (% control)
T3 construct: purchased DiscoverX scanMAX kinase assay panel
Procedure: as §1, §2

DYRK1B = biological target: T4, DYRK1B (Homo sapiens, UniProt Q9Y463); assay: scanMAX kinase assay panel; assay type: binding; conditions: read-out: control percentage (% control)
T4 construct: purchased DiscoverX scanMAX kinase assay panel
Procedure: as §1, §2

EGFR(L858R, T790M) = biological target: T5, EGFR(L858R, T790M) (Homo sapiens, UniProt P00533, L858R/T790M); assay: scanMAX kinase assay panel; assay type: binding; conditions: read-out: control percentage (% control)
T5 construct: purchased DiscoverX scanMAX kinase assay panel
Procedure: as §1, §2

[1] = biological target: T6, TYK2(JH1domain-catalytic) (Homo sapiens, UniProt P29597); assay: scanMAX kinase assay panel; assay type: binding; conditions: read-out: control percentage (% control)
T6 construct: TYK2(JH1domain-catalytic); purchased DiscoverX
Procedure: as §1, §2

TTK = biological target: T7, TTK (Homo sapiens, UniProt P33981); assay: scanMAX kinase assay panel; assay type: binding; conditions: read-out: control percentage (% control)
T7 construct: purchased DiscoverX
Procedure: as §1, §2

[2] = biological target: T8, JAK1(JH2domain-pseudokinase) (Homo sapiens, UniProt P23458); assay: scanMAX kinase assay panel; assay type: binding; conditions: read-out: control percentage (% control)
T8 construct: JAK1(JH2domain-pseudokinase); purchased DiscoverX scanMAX kinase assay panel
Procedure: as §1, §2

PYK2 = biological target: T9, PYK2 (Homo sapiens, UniProt Q14289); assay: scanMAX kinase assay panel; assay type: binding; conditions: read-out: control percentage (% control)
T9 construct: purchased DiscoverX scanMAX kinase assay panel
Procedure: as §1, §2

RET(V804M) = biological target: T10, RET(V804M) (Homo sapiens, UniProt P07949, V804M); assay: scanMAX kinase assay panel; assay type: binding; conditions: read-out: control percentage (% control)
T10 construct: purchased DiscoverX scanMAX kinase assay panel
Procedure: as §1, §2

FLT3(ITD, D835V) = assay: scanMAX kinase assay panel; assay type: binding; conditions: 1 μM
Procedure: as §1, §2

MAP4K5 = biological target: T11, MAP4K5 (Homo sapiens, UniProt Q9Y4K4); assay: scanMAX kinase assay panel; assay type: binding; conditions: read-out: control percentage (% control)
T11 construct: purchased DiscoverX scanMAX kinase assay panel
Procedure: as §1, §2

EGFR(L858R) = biological target: T12, EGFR(L858R) (Homo sapiens, UniProt P00533, L858R); assay: scanMAX kinase assay panel; assay type: binding; conditions: read-out: control percentage (% control)
T12 construct: purchased DiscoverX scanMAX kinase assay panel
Procedure: as §1, §2

[3] = biological target: T13, TYK2(JH2domain-pseudokinase) (Homo sapiens, UniProt P29597); assay: scanMAX kinase assay panel; assay type: binding; conditions: read-out: control percentage (% control)
T13 construct: TYK2(JH2domain-pseudokinase); purchased DiscoverX
Procedure: as §1, §2

EGFR = biological target: T14, EGFR (Homo sapiens, UniProt P00533); assay: scanMAX kinase assay panel; assay type: binding; conditions: read-out: control percentage (% control)
T14 construct: purchased DiscoverX scanMAX kinase assay panel
Procedure: as §1, §2

CLK2 = biological target: T15, CLK2 (Homo sapiens, UniProt P49760); assay: scanMAX kinase assay panel; assay type: binding; conditions: read-out: control percentage (% control)
T15 construct: purchased DiscoverX (scanMAX panel, contract assay)
Procedure: as §1, §2

STK16 = biological target: T16, STK16 (Homo sapiens, UniProt O75716); assay: scanMAX kinase assay panel; assay type: binding; conditions: read-out: control percentage (% control)
T16 construct: purchased DiscoverX
Procedure: as §1, §2

INSR = biological target: T17, INSR (Homo sapiens, UniProt P06213); assay: scanMAX kinase assay panel; assay type: binding; conditions: read-out: control percentage (% control)
T17 construct: purchased DiscoverX scanMAX kinase assay panel
Procedure: as §1, §2

MAP4K2 = biological target: T18, MAP4K2 (Homo sapiens, UniProt Q12851); assay: scanMAX kinase assay panel; assay type: binding; conditions: read-out: control percentage (% control)
T18 construct: purchased DiscoverX scanMAX kinase assay panel
Procedure: as §1, §2

MEK5 = biological target: T19, MEK5 (Homo sapiens, UniProt Q13163); assay: scanMAX kinase assay panel; assay type: binding; conditions: read-out: control percentage (% control)
T19 construct: purchased DiscoverX scanMAX kinase assay panel
Procedure: as §1, §2

FLT3(D835V) = biological target: T20, FLT3(D835V) (Homo sapiens, UniProt P36888, D835V); assay: scanMAX kinase assay panel; assay type: binding; conditions: read-out: control percentage (% control)
T20 construct: purchased DiscoverX scanMAX kinase assay panel
Procedure: as §1, §2

MST3 = biological target: T21, MST3 (Homo sapiens, UniProt Q9Y6E0); assay: scanMAX kinase assay panel; assay type: binding; conditions: read-out: control percentage (% control)
T21 construct: purchased DiscoverX scanMAX kinase assay panel
Procedure: as §1, §2

EGFR(T790M) = biological target: T22, EGFR(T790M) (Homo sapiens, UniProt P00533, T790M); assay: scanMAX kinase assay panel; assay type: binding; conditions: read-out: control percentage (% control)
T22 construct: purchased DiscoverX scanMAX kinase assay panel
Procedure: as §1, §2

T5 sequence (P00533 25-1210 T790M/L858R): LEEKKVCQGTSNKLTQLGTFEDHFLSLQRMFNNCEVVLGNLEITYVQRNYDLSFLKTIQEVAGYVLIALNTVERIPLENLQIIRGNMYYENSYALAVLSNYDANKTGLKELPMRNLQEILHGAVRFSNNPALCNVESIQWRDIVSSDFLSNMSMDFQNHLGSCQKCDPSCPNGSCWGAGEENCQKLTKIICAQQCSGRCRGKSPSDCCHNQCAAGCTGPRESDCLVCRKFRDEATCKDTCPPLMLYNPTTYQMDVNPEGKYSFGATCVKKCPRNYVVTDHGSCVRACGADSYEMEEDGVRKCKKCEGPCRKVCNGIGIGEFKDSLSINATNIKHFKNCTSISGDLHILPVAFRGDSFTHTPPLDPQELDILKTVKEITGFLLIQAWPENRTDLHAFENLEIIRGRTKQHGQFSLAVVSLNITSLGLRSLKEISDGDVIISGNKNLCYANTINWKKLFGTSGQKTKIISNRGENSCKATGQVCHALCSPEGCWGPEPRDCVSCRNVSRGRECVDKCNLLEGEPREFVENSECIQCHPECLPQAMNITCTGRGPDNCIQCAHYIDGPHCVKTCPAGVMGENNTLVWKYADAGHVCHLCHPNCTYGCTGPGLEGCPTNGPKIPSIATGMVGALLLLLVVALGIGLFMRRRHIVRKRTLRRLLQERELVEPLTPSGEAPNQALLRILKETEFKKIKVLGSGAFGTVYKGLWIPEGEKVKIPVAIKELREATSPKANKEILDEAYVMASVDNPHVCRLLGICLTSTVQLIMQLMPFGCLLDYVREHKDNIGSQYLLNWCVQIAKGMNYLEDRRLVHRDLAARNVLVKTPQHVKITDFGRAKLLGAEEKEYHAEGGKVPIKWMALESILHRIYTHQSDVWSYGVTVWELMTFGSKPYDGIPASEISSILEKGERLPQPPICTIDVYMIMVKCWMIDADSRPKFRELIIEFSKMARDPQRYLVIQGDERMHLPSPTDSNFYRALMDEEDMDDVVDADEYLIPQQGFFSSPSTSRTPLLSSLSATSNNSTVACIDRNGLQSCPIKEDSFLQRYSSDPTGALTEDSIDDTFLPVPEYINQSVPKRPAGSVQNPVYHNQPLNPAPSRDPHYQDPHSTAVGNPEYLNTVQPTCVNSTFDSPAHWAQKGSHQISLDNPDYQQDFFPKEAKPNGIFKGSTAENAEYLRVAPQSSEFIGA
T18 sequence (Q12851 whole entry): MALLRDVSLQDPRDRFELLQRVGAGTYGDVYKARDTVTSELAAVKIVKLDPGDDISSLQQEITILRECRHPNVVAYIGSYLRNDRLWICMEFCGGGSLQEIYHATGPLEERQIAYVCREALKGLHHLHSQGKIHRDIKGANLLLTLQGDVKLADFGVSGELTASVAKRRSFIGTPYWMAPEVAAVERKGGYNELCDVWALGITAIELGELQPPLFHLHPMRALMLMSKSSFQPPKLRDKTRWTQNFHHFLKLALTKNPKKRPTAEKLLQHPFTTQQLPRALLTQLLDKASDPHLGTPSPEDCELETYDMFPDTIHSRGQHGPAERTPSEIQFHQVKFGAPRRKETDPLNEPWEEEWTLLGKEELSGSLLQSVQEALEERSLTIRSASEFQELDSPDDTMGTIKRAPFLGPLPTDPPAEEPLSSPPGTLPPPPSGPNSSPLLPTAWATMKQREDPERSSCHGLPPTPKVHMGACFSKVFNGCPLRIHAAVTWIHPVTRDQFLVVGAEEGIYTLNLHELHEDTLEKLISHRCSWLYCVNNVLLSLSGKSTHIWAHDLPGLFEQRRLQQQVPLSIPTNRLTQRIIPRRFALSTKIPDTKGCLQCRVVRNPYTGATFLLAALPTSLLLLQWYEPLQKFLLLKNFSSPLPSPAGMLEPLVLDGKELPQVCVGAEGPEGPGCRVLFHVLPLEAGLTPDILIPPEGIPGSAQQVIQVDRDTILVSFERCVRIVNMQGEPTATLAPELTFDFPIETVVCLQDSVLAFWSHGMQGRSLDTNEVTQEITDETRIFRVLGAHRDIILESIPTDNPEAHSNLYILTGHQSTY
T21 sequence (Q9Y6E0 whole entry): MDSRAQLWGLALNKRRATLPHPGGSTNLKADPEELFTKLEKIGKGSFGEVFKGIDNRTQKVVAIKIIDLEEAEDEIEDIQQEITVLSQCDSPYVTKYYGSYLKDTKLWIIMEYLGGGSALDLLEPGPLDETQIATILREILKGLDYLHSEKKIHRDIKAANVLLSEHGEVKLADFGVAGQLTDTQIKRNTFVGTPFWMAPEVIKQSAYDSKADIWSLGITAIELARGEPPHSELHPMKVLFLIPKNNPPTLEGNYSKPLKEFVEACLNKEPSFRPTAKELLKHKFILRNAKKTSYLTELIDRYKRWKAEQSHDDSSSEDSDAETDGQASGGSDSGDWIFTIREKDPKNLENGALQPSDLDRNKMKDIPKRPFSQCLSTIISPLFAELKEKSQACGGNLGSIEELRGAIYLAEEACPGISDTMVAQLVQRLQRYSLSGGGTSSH
T9 sequence (Q14289 whole entry): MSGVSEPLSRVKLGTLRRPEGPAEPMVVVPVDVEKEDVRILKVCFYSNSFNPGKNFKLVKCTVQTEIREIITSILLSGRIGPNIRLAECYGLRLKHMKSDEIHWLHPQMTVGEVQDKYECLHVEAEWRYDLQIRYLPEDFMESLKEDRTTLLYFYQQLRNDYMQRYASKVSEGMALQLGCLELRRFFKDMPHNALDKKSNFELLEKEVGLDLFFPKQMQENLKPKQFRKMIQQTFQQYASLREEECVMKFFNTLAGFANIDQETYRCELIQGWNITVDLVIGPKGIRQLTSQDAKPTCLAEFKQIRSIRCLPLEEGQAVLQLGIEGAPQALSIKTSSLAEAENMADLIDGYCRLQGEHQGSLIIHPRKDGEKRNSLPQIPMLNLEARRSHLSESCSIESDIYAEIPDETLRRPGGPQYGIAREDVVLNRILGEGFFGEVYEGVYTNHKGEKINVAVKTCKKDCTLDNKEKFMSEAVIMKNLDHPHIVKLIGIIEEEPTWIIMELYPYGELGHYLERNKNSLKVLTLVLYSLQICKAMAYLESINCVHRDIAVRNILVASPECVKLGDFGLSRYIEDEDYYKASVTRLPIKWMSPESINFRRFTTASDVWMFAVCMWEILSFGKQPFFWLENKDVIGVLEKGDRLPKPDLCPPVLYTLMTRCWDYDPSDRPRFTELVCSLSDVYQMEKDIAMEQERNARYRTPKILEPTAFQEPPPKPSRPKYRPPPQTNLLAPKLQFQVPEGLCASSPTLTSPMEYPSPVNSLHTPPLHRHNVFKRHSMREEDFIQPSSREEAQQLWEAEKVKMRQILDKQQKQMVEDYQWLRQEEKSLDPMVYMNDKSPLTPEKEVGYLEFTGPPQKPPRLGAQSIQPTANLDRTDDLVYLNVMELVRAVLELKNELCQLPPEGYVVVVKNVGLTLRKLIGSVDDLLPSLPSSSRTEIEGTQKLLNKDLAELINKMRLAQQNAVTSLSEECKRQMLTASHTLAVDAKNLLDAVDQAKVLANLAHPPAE
T17 sequence (P06213 28-1382): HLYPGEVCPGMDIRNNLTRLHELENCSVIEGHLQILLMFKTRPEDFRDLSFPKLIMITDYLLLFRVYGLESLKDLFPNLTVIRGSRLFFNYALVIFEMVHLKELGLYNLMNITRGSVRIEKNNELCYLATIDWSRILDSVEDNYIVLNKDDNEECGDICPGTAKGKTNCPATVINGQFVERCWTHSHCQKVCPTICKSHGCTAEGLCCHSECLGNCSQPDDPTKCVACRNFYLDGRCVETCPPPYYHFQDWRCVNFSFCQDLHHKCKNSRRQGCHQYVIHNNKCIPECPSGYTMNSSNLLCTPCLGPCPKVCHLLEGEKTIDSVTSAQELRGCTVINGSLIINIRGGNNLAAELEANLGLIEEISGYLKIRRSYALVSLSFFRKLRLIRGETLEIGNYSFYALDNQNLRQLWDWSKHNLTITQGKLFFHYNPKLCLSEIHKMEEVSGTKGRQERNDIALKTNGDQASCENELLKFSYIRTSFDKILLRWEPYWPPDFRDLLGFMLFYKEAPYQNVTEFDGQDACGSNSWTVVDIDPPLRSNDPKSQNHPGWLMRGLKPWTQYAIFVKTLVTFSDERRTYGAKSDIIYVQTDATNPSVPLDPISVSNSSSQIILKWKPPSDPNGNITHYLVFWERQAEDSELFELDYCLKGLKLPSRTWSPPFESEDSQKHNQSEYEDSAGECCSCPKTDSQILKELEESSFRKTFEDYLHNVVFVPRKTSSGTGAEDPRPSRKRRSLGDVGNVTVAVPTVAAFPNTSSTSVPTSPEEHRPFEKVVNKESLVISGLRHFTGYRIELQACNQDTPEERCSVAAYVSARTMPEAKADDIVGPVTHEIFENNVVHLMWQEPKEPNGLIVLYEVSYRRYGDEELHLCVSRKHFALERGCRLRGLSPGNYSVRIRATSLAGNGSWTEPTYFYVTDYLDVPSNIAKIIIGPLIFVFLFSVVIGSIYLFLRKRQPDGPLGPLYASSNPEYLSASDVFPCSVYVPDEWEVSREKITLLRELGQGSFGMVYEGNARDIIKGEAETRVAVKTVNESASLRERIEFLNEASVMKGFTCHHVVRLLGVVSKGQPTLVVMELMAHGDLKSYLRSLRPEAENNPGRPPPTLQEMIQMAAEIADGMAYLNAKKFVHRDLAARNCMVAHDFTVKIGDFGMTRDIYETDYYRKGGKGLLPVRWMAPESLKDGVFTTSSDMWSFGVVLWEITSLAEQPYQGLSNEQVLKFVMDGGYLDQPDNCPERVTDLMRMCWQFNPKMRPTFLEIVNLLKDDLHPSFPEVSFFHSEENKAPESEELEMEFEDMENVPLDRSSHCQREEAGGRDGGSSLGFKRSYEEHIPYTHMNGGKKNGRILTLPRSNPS
T13 sequence (P29597 589-875 limits assumed): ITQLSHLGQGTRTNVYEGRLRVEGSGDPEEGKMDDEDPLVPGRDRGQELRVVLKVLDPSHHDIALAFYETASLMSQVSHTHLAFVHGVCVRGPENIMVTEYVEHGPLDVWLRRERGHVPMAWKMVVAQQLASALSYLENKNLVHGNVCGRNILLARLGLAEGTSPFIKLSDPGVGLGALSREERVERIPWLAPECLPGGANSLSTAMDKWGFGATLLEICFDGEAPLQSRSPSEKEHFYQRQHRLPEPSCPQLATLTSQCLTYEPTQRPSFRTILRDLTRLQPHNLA

With `CN1CCN(c2ccc(Nc3nc(N4OCC[C@H]4c4ccccc4)c4cc[nH]c4n3)cc2)CC1` [Example 74, (S)-N-(4-(4-methylpiperazin-1-yl)phenyl)-4-(3-phenylisoxazolidin-2-yl)-7H-pyrrolo[2,3-d]pyrimidin-2-amine] the IC50 (human GST-HPK1 (1-346)) was ≥ 250 nM, the remaining binding at 1 µM (ULK1) was 8.1% and the remaining binding at 1 µM (FGR) was 17%. For the same compound, the remaining binding at 1 µM (DYRK1B) was 11%, the remaining binding at 1 µM (EGFR(L858R, T790M)) was 17% and the remaining binding at 1 µM [1] was 5.6%. The remaining binding at 1 µM (TTK) was 13%, the remaining binding at 1 µM [2] was 1.2% and the remaining binding at 1 µM (PYK2) was 27%. The remaining binding at 1 µM (RET(V804M)) was 3.9%, the “control percentage (% control)” value (FLT3(ITD, D835V)) was 0% and the remaining binding at 1 µM (MAP4K5) was 21%. The remaining binding at 1 µM (EGFR(L858R)) was 20%, the remaining binding at 1 µM [3] was 2.6% and the remaining binding at 1 µM (EGFR) was 28%. The remaining binding at 1 µM (CLK2) was 9.2%, the remaining binding at 1 µM (STK16) was 26% and the remaining binding at 1 µM (INSR) was 19%. The remaining binding at 1 µM (MAP4K2) was 12%, the remaining binding at 1 µM (MEK5) was 26% and the remaining binding at 1 µM (FLT3(D835V)) was 1.7%. The remaining binding at 1 µM (MST3) was 32% and the remaining binding at 1 µM (EGFR(T790M)) was 3.7%.
